Laboratory results published in patent US20100267561A1, “HERBICIDAL PYRIDAZINONE DERIVATIVES” (priority 2007, published 2010).

Experiments:
Type in all cases: in vivo
[1] = system: downy bromegrass (Bromus tectorum); test: Test C pre-/postemergence plant response; conditions: Preemergence
Outline: (§1)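 Seeds are planted and sprayed preemergence, while established plants at the 1- to 4-leaf stage (2 to 18 cm) receive postemergence sprays of the same surfactant-containing, non-phytotoxic solvent formulation. After 15 to 25 days under controlled conditions, injury is scored visually from 0 (no effect) to 100 (complete control).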

[2] = system: wild oat (Avena fatua); test: Test C pre-/postemergence plant response; conditions: Preemergence
Outline: as §1

[3] = system: Italian ryegrass (Lolium multiflorum); test: Test E pre-/postemergence plant response; conditions: scale 0 to 100
Outline: (§2)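 Visual rating 0–100 vs untreated controls (0 = no effect, 100 = complete control) after 14–21 d greenhouse. Pre- and postemergence treatments; compound in non-phytotoxic solvent mix + surfactant. Post plants 2–18 cm, 1- to 4-leaf stage.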

[4] = system: bermudagrass (Cynodon dactylon); test: Test E pre-/postemergence plant response; conditions: scale 0 to 100
Outline: as §2

[5] = system: black mustard (Brassica nigra); test: Test E pre-/postemergence plant response; conditions: scale 0 to 100
Outline: as §2

[6] = system: broadleaf signalgrass (Brachiaria platyphylla); test: Test E pre-/postemergence plant response; conditions: scale 0 to 100
Outline: as §2

[7] = system: common purslane (Portulaca oleracea); test: Test E pre-/postemergence plant response; conditions: scale 0 to 100
Outline: as §2

[8] = system: dallisgrass (Paspalum dilatatum); test: Test E pre-/postemergence plant response; conditions: scale 0 to 100
Outline: as §2

[9] = system: itchgrass (Rottboellia cochinchinensis); test: Test E pre-/postemergence plant response; conditions: scale 0 to 100
Outline: as §2

[10] = system: johnsongrass (Sorghum halepense); test: Test E pre-/postemergence plant response; conditions: scale 0 to 100
Outline: as §2

[11] = system: naked crabgrass (Digitaria nuda); test: Test E pre-/postemergence plant response; conditions: scale 0 to 100
Outline: as §2

[12] = system: quackgrass (Elytrigia repens); test: Test E pre-/postemergence plant response; conditions: scale 0 to 100
Outline: as §2

[13] = system: surinam grass (Brachiaria decumbens); test: Test E pre-/postemergence plant response; conditions: scale 0 to 100
Outline: as §2

[14] = 8 g ai/ha, scale 0 to 100 (0 no effect, 100 complete control)
[15] = 16 g ai/ha, scale 0 to 100 (0 no effect, 100 complete control)
[16] = 31 g ai/ha, scale 0 to 100 (0 no effect, 100 complete control)
[17] = 62 g ai/ha, scale 0 to 100, 0 no effect, 100 complete control

Compound: Cc1cc(-c2ccc(Cl)cc2)nn1-c1c(OS(=O)(=O)c2ccccc2)cnn(C)c1=O [Compound 35]
- Plant response rating, Bromegrass, Downy [1, 14]: 0
- Plant response rating, Bromegrass, Downy [1, 15]: 0
- Plant response rating, Bromegrass, Downy [1, 16]: 50
- Plant response rating, Bromegrass, Downy [1, 17]: 60
- Plant response rating, Oat, Wild [2, 14]: 0
- Plant response rating, Oat, Wild [2, 15]: 0
- Plant response rating, Oat, Wild [2, 16]: 30
- Plant response rating, Oat, Wild [2, 17]: 70
- Plant response rating, Ryegrass, Italian ([3]; 16 g ai/ha, Preemergence): 98
- Plant response rating, Ryegrass, Italian ([3]; 31 g ai/ha, Preemergence): 100
- Plant response rating, Ryegrass, Italian ([3]; 62 g ai/ha, Preemergence): 100
- Plant response rating, Ryegrass, Italian ([3]; Postemergence, 8 g ai/ha): 20
- Plant response rating, Ryegrass, Italian ([3]; Postemergence, 16 g ai/ha): 20
- Plant response rating, Ryegrass, Italian ([3]; Postemergence, 31 g ai/ha): 60
- Plant response rating, Ryegrass, Italian ([3]; Postemergence, 62 g ai/ha): 95
- Plant response rating, Bermudagrass ([4]; 8 g ai/ha, Preemergence): 60
- Plant response rating, Bermudagrass ([4]; 16 g ai/ha, Preemergence): 80
- Plant response rating, Bermudagrass ([4]; 31 g ai/ha, Preemergence): 98
- Plant response rating, Bermudagrass ([4]; 62 g ai/ha, Preemergence): 100
- Plant response rating, Bermudagrass ([4]; Postemergence, 8 g ai/ha): 35
- Plant response rating, Bermudagrass ([4]; Postemergence, 16 g ai/ha): 65
- Plant response rating, Bermudagrass ([4]; Postemergence, 31 g ai/ha): 80
- Plant response rating, Bermudagrass ([4]; Postemergence, 62 g ai/ha): 90
- Plant response rating, Mustard, Black ([5]; 8 g ai/ha, Preemergence): 0
- Plant response rating, Mustard, Black ([5]; 16 g ai/ha, Preemergence): 0
- Plant response rating, Mustard, Black ([5]; 31 g ai/ha, Preemergence): 0
- Plant response rating, Mustard, Black ([5]; 62 g ai/ha, Preemergence): 0
- Plant response rating, Mustard, Black ([5]; Postemergence, 8 g ai/ha): 0
- Plant response rating, Mustard, Black ([5]; Postemergence, 16 g ai/ha): 0
- Plant response rating, Mustard, Black ([5]; Postemergence, 31 g ai/ha): 0
- Plant response rating, Mustard, Black ([5]; Postemergence, 62 g ai/ha): 0
- Plant response rating, Signalgrass ([6]; 16 g ai/ha, Preemergence): 80
- Plant response rating, Signalgrass ([6]; 31 g ai/ha, Preemergence): 100
- Plant response rating, Signalgrass ([6]; 62 g ai/ha, Preemergence): 100
- Plant response rating, Signalgrass ([6]; Postemergence, 8 g ai/ha): 60
- Plant response rating, Signalgrass ([6]; Postemergence, 16 g ai/ha): 70
- Plant response rating, Signalgrass ([6]; Postemergence, 31 g ai/ha): 75
- Plant response rating, Signalgrass ([6]; Postemergence, 62 g ai/ha): 100
- Plant response rating, Purslane ([7]; 16 g ai/ha, Preemergence): 0
- Plant response rating, Purslane ([7]; 31 g ai/ha, Preemergence): 0
- Plant response rating, Purslane ([7]; 62 g ai/ha, Preemergence): 0
- Plant response rating, Purslane ([7]; Postemergence, 8 g ai/ha): 0
- Plant response rating, Purslane ([7]; Postemergence, 16 g ai/ha): 0
- Plant response rating, Purslane ([7]; Postemergence, 31 g ai/ha): 0
- Plant response rating, Purslane ([7]; Postemergence, 62 g ai/ha): 0
- Plant response rating, Dallisgrass ([8]; 8 g ai/ha, Preemergence): 0
- Plant response rating, Dallisgrass ([8]; 16 g ai/ha, Preemergence): 40
- Plant response rating, Dallisgrass ([8]; 31 g ai/ha, Preemergence): 90
- Plant response rating, Dallisgrass ([8]; 62 g ai/ha, Preemergence): 90
- Plant response rating, Dallisgrass ([8]; Postemergence, 8 g ai/ha): 30
- Plant response rating, Dallisgrass ([8]; Postemergence, 16 g ai/ha): 30
- Plant response rating, Dallisgrass ([8]; Postemergence, 31 g ai/ha): 50
- Plant response rating, Dallisgrass ([8]; Postemergence, 62 g ai/ha): 60
- Plant response rating, Itchgrass ([9]; 16 g ai/ha, Preemergence): 75
- Plant response rating, Itchgrass ([9]; 31 g ai/ha, Preemergence): 75
- Plant response rating, Itchgrass ([9]; 62 g ai/ha, Preemergence): 75
- Plant response rating, Itchgrass ([9]; Postemergence, 8 g ai/ha): 30
- Plant response rating, Itchgrass ([9]; Postemergence, 16 g ai/ha): 40
- Plant response rating, Itchgrass ([9]; Postemergence, 31 g ai/ha): 70
- Plant response rating, Itchgrass ([9]; Postemergence, 62 g ai/ha): 70
- Plant response rating, Johnsongrass ([10]; 16 g ai/ha, Preemergence): 75
- Plant response rating, Johnsongrass ([10]; 31 g ai/ha, Preemergence): 80
- Plant response rating, Johnsongrass ([10]; 62 g ai/ha, Preemergence): 90
- Plant response rating, Johnsongrass ([10]; Postemergence, 8 g ai/ha): 40
- Plant response rating, Johnsongrass ([10]; Postemergence, 16 g ai/ha): 50
- Plant response rating, Johnsongrass ([10]; Postemergence, 31 g ai/ha): 70
- Plant response rating, Johnsongrass ([10]; Postemergence, 62 g ai/ha): 98
- Plant response rating, Crabgrass, Naked ([11]; 8 g ai/ha, Preemergence): 75
- Plant response rating, Crabgrass, Naked ([11]; 16 g ai/ha, Preemergence): 98
- Plant response rating, Crabgrass, Naked ([11]; 31 g ai/ha, Preemergence): 100
- Plant response rating, Crabgrass, Naked ([11]; 62 g ai/ha, Preemergence): 100
- Plant response rating, Crabgrass, Naked ([11]; Postemergence, 8 g ai/ha): 50
- Plant response rating, Crabgrass, Naked ([11]; Postemergence, 16 g ai/ha): 50
- Plant response rating, Crabgrass, Naked ([11]; Postemergence, 31 g ai/ha): 95
- Plant response rating, Crabgrass, Naked ([11]; Postemergence, 62 g ai/ha): 95
- Plant response rating, Quackgrass ([12]; 16 g ai/ha, Preemergence): 20
- Plant response rating, Quackgrass ([12]; 31 g ai/ha, Preemergence): 40
- Plant response rating, Quackgrass ([12]; 62 g ai/ha, Preemergence): 50
- Plant response rating, Quackgrass ([12]; Postemergence, 8 g ai/ha): 0
- Plant response rating, Quackgrass ([12]; Postemergence, 16 g ai/ha): 10
- Plant response rating, Quackgrass ([12]; Postemergence, 31 g ai/ha): 30
- Plant response rating, Quackgrass ([12]; Postemergence, 62 g ai/ha): 40
- Plant response rating, Surinam Grass ([13]; 16 g ai/ha, Preemergence): 95
- Plant response rating, Surinam Grass ([13]; 31 g ai/ha, Preemergence): 100
- Plant response rating, Surinam Grass ([13]; 62 g ai/ha, Preemergence): 100
- Plant response rating, Surinam Grass ([13]; Postemergence, 8 g ai/ha): 70
- Plant response rating, Surinam Grass ([13]; Postemergence, 16 g ai/ha): 75
- Plant response rating, Surinam Grass ([13]; Postemergence, 31 g ai/ha): 80
- Plant response rating, Surinam Grass ([13]; Postemergence, 62 g ai/ha): 90
